Results on 41 molecules are retold here after patent US20100331348A1, “TROPANE DERIVATIVES USEFUL AS PESTICIDES” (SYNGENTA CROP PROTECTION, INC., priority 2007, published 2010).

Where two headings read alike, the source gives them in different places.

One assay deals with Plasmopara viticola. Kind of assay: Plasmopara viticola (downy mildew of grapevine) leaf disk assay. It is filed as in vivo. The settings on record: foliar, 168 h, preventive, seven days after inoculation, read-out: control of fungal infection, Plasmopara viticola.
In assay [1] the test system is Puccinia recondita f.sp. tritici. The assay is described as follows: Puccinia recondita f.sp. tritici (wheat brown rust) leaf disk assay. It is filed as in vivo. The following applies: foliar, 216 h, preventive, nine days after inoculation, read-out: control of fungal infection, Puccinia recondita f.sp. tritici.
The test system of a further assay is Phytophthora infestans. The assay is described as follows: whole plant or invertebrate. It is filed as in vivo. The following applies: foliar, 96 h, read-out: control of fungal infection, Phytophthora infestans.
For assay [2], the system named is Erysiphe graminis f.sp. tritici. Kind of assay: Erysiphe graminis f.sp. tritici (wheat powdery mildew) leaf disk assay. The assay is classed as in vivo. The following applies: Blumeria graminis, foliar, 96 h, preventive, four days after inoculation, read-out: control of fungal infection, Erysiphe graminis fsp. tritici.
For another assay, the system named is Pyricularia oryzae. The assay is described as follows: whole plant or invertebrate. The assay is classed as in vivo. The settings on record: foliar, 96 h.
In another assay the test system is Aedes aegypti. Kind of assay: Aedes aegypti (Yellow fever mosquito) larvae test. It is filed as in vivo. The following applies: 48 h.
In the next assay the test system is Plutella xylostella. The assay is described as follows: Plutella xylostella (Diamond back moth) artificial diet test. The following applies: 120 h, read-out: control of Plutella xylostella.
Where [3] appears, read: read-out: control of fungal infection, Pyricularia oryzae (at least 60% list).
Setting [4] is: read-out: control of fungal infection, Pyricularia oryzae (at least 80% list).

`O=C(CC1CC2CCC(C1)N2c1ncnc2sccc12)Nc1ccc(Cl)cc1` (stereo not shown) [Example 7.12]: the pest or weed control at 200 ppm (in the assay on Plasmopara viticola; in assay [1]) was no less than 80% throughout.
Take `Clc1cc(ON=C2CC3CCC(C2)N3c2ncnc3sccc23)nc(Cl)n1` [Example 5.154]: in the assay on Plasmopara viticola, the pest or weed control at 200 ppm was no less than 80%.
Take `CCc1ncnc(N2C3CCC2CC(=NOCc2c(C)noc2C)C3)c1Cl` [Example 5.110]: the pest or weed control at 200 ppm (in assay [1]; in the assay with Phytophthora infestans) was no less than 80% throughout.
Regarding `Cc1ccc(OC2C[C@H]3CC[C@@H](C2)N3c2ncnc3sccc23)cn1` (stereo partly shown) [Example 2.44], the pest or weed control at 200 ppm (in the assay with Phytophthora infestans; in assay [2]) was no less than 80% each time.
On to `COc1cc(ON=C2CC3CCC(C2)N3c2ncnc3sccc23)nc(SC)n1` [Example 5.246], for which the pest or weed control at 200 ppm (with Plasmopara viticola; in assay [1]) was no less than 80% each time.
For `c1nc(N2C3CCC2CC(=NOCCC2CCCCC2)C3)c2ccsc2n1` [Example 5.136], in the assay on Plasmopara viticola, the pest or weed control at 200 ppm was no less than 80%.
As to `Cc1cc(C)c(CON=C2CC3CCC(C2)N3c2ncnc3sccc23)c(C)c1` [Example 5.189], the pest or weed control at 200 ppm (in assay [1]; in the assay on Phytophthora infestans; in assay [2]) was no less than 80% in each case.
Turning to `Cc1nsc(Oc2cccc(OC3C[C@H]4CC[C@@H](C3)N4c3ncnc4scc(C)c34)c2)n1` (stereo partly shown) [Example 2.73], the pest or weed control at 200 ppm (in the assay on Phytophthora infestans; in assay [2]) was no less than 80% in each case.
Regarding `c1ccc(CCON=C2CC3CCC(C2)N3c2ncnc3sccc23)cc1` [Example 5.140], the pest or weed control at 200 ppm in assay [1] is no less than 80%; in the assay with Phytophthora infestans it was no less than 80%; in assay [2] it was no less than 80%; in the assay on Pyricularia oryzae (setting [3]), no less than 60%; in the assay on Pyricularia oryzae (setting [4]), no less than 80%.
`CCc1ncnc(N2C3CCC2CC(=NOc2nc(Cl)ccc2C(F)(F)F)C3)c1Cl` [Example 5.117]: the pest or weed control at 200 ppm with Plasmopara viticola was no less than 80%.
Consider `Cc1nc(CON=C2CC3CCC(C2)N3c2ncnc3sccc23)cs1` [Example 5.220], for which the pest or weed control at 200 ppm (in assay [1]; in the assay on Phytophthora infestans; in assay [2]) was no less than 80% each time.
`CCc1ncnc(N2C3CCC2CC(=NOCc2cccc(F)c2)C3)c1Cl` [Example 5.48]: the pest or weed control at 200 ppm (in assay [1]; in the assay on Phytophthora infestans; in assay [2]) was no less than 80% in each case. Further, the pest or weed control at 2 ppm in the assay on Aedes aegypti is no less than 80%.
On to `N#Cc1cccc(CON=C2CC3CCC(C2)N3c2ncnc3sccc23)c1` [Example 5.199], for which the pest or weed control at 200 ppm (in assay [1]; with Phytophthora infestans; in assay [2]; with Pyricularia oryzae (setting [4])) was no less than 80% each time.
In the case of `c1cnc(OC2C[C@H]3CC[C@@H](C2)N3c2ncnc3sccc23)nc1` (stereo partly shown) [Example 1.2], the pest or weed control at 200 ppm (in assay [1]; in the assay on Phytophthora infestans; in assay [2]; in the assay with Pyricularia oryzae (setting [4])) was no less than 80% throughout.
In the case of `CCc1ncnc(N2C3CCC2CC(=NOCc2nc(C)cc(Cl)n2)C3)c1Cl` [Example 5.13], the pest or weed control at 200 ppm (with Plasmopara viticola; in assay [2]) was no less than 80% throughout.
With `FC(F)(F)c1cccc(OC2C[C@H]3CC[C@@H](C2)N3c2ncnc3ccccc23)n1` (stereo partly shown) [Example 2.83], the pest or weed control at 200 ppm (in assay [1]; with Phytophthora infestans; in assay [2]) was no less than 80% throughout.
Take `CCc1ncnc(N2[C@@H]3CC[C@H]2CC(NCc2ccc(Cl)cc2)C3)c1Cl` (stereo partly shown) [Example 4.12]: the pest or weed control at 200 ppm in the assay on Phytophthora infestans was no less than 80%.
Turning to `c1ccc(-c2ccccc2CON=C2CC3CCC(C2)N3c2ncnc3sccc23)cc1` [Example 5.177], the pest or weed control at 200 ppm with Phytophthora infestans was no less than 80%.
In the case of `COC(=O)Cc1c(Cl)ncnc1ON=C1CC2CCC(C1)N2c1ncnc2sccc12` [Example 5.237], the pest or weed control at 200 ppm (in the assay with Phytophthora infestans; in assay [2]) was no less than 80% throughout.
For `Clc1cccc(CON=C2CC3CCC(C2)N3c2ncnc3sccc23)c1` [Example 5.150], the pest or weed control at 200 ppm in assay [1] is no less than 80%; in the assay on Phytophthora infestans it was no less than 80%; in assay [2], no less than 80%; in the assay on Pyricularia oryzae (setting [3]), no less than 60%. For the same molecule, the pest or weed control at 2 ppm in the assay on Aedes aegypti is no less than 80%.
In the case of `Brc1ccc(CON=C2CC3CCC(C2)N3c2ncnc3sccc23)cc1` [Example 5.158], the pest or weed control at 200 ppm (in assay [1]; in the assay on Phytophthora infestans; in assay [2]; in the assay with Pyricularia oryzae (setting [4])) was no less than 80% each time.
Regarding `CCCNC(=O)C=C1CC2CCC(C1)N2c1ncnc(CC)c1Cl` [Example 3.5], the pest or weed control at 200 ppm (in the assay on Plasmopara viticola; in assay [1]) was no less than 80% in each case.
Consider `Fc1cccc(OC2C[C@H]3CC[C@@H](C2)N3c2ncnc3sccc23)c1` (stereo partly shown) [Example 1.15], for which the pest or weed control at 200 ppm (with Plasmopara viticola; in assay [1]) was no less than 80% in each case.
On to `Fc1ccc(CON=C2CC3CCC(C2)N3c2ncnc3sccc23)cc1F` [Example 5.185], for which the pest or weed control at 200 ppm in assay [1] was no less than 80%; in the assay on Phytophthora infestans, no less than 80%; in assay [2], no less than 80%; in the assay with Pyricularia oryzae (setting [3]) it was no less than 60%; in the assay on Pyricularia oryzae (setting [4]) it was no less than 80%; in the assay on Plutella xylostella, no less than 80%. The molecule also returned a pest or weed control at 2 ppm in the assay on Aedes aegypti of no less than 80%.
Turning to `c1ccc2c(c1)[nH]c1cc(OC3C[C@H]4CC[C@@H](C3)N4c3ncnc4sccc34)ccc12` (stereo partly shown) [Example 2.19], the pest or weed control at 200 ppm (in the assay on Phytophthora infestans; in assay [2]) was no less than 80% throughout.
Turning to `CCC(=O)c1ccc(OC2C[C@H]3CC[C@@H](C2)N3c2ncnc3sccc23)cc1` (stereo partly shown) [Example 1.256], the pest or weed control at 200 ppm (in assay [1]; in the assay with Phytophthora infestans) was no less than 80% in each case. Also, the pest or weed control at 2 ppm in the assay with Aedes aegypti was no less than 80%.
Regarding `CCc1ncnc(N2[C@@H]3CC[C@H]2CC(Oc2ccc(OC)cc2C(C)=O)C3)c1Cl` (stereo partly shown) [Example 1.211], in the assay with Phytophthora infestans, the pest or weed control at 200 ppm is no less than 80%.
`Fc1cc(CON=C2CC3CCC(C2)N3c2ncnc3sccc23)cc(C(F)(F)F)c1F` [Example 5.235]: the pest or weed control at 200 ppm was no less than 80% in assay [1], no less than 80% in the assay on Phytophthora infestans, no less than 80% in assay [2] and no less than 60% with Pyricularia oryzae (setting [3]).
As for `FC(F)(F)c1ccc(OC2C[C@H]3CC[C@@H](C2)N3c2ncnc3sccc23)nc1` (stereo partly shown) [Example 2.61], the pest or weed control at 200 ppm was no less than 80% in assay [1], no less than 80% in the assay with Phytophthora infestans, no less than 80% in assay [2] and no less than 60% with Pyricularia oryzae (setting [3]).
In the case of `CC(=O)Nc1ccc(CON=C2CC3CCC(C2)N3c2ncnc3sccc23)cc1` [Example 5.159], the pest or weed control at 200 ppm (in the assay with Phytophthora infestans; in assay [2]) was no less than 80% each time.
Take `CCc1ncnc(N2C3CCC2CC(=NOCc2ccccc2C)C3)c1Cl` [Example 5.10]: the pest or weed control at 200 ppm (in assay [1]; with Phytophthora infestans; in assay [2]; in the assay with Plutella xylostella) was no less than 80% each time.
Turning to `CCc1ncnc(N2C3CCC2CC(=NOCc2ccc(F)c(F)c2F)C3)c1Cl` [Example 5.81], the pest or weed control at 200 ppm in assay [1] is no less than 80%; in the assay on Phytophthora infestans it was no less than 80%; in assay [2] it was no less than 80%; in the assay on Pyricularia oryzae (setting [3]), no less than 60%. The same molecule showed a pest or weed control at 2 ppm with Aedes aegypti of no less than 80%.
For `Cc1nn(C)c2nccc(N3C4CCC3CC(=NOCc3ccccc3)C4)c12` [Example 5.253], in the assay on Plasmopara viticola, the pest or weed control at 200 ppm was no less than 80%.
On to `CCc1ncnc(N2C3CCC2CC(=NOc2ncccn2)C3)c1Cl` [Example 5.2], for which the pest or weed control at 200 ppm in the assay with Phytophthora infestans is no less than 80%.
Take `Brc1cccc(CON=C2CC3CCC(C2)N3c2ncnc3sccc23)c1` [Example 5.181]: the pest or weed control at 200 ppm in assay [1] is no less than 80%; in the assay on Phytophthora infestans it was no less than 80%; in assay [2] it was no less than 80%; in the assay on Pyricularia oryzae (setting [3]), no less than 60%. Further, the pest or weed control at 2 ppm in the assay with Aedes aegypti was no less than 80%.
Consider `CCc1ncnc(N2C3CCC2CC(=NOCC(=O)OC(C)(C)C)C3)c1Cl` [Example 5.24], for which the pest or weed control at 200 ppm (with Phytophthora infestans; in assay [2]) was no less than 80% throughout.
For the molecule `CSc1nc(C)cc(OC2C[C@H]3CC[C@@H](C2)N3c2ncnc3sccc23)n1` (stereo partly shown) [Example 1.77], the pest or weed control at 200 ppm (in the assay with Plasmopara viticola; in assay [2]) was no less than 80% throughout.
As for `CCc1ncnc(N2C3CCC2CC(=NOCc2ccc(NC(C)=O)cc2)C3)c1Cl` [Example 5.51], the pest or weed control at 200 ppm (in assay [1]; in the assay with Phytophthora infestans; in assay [2]) was no less than 80% in each case.
On to `Fc1cc(F)c(F)c(CON=C2CC3CCC(C2)N3c2ncnc3sccc23)c1` [Example 5.227], for which the pest or weed control at 200 ppm was no less than 80% in assay [1], no less than 80% with Phytophthora infestans, no less than 80% in assay [2] and no less than 60% with Pyricularia oryzae (setting [3]). In the assay with Aedes aegypti, this molecule gave a pest or weed control at 2 ppm of no less than 80%.
Turning to `O=C(C=C1CC2CCC(C1)N2c1ncnc2sccc12)Nc1ccc(Cl)cc1` [Example 3.17], the pest or weed control at 200 ppm with Plasmopara viticola is no less than 80%.
With `CC(NC(=O)C=C1CC2CCC(C1)N2c1ncnc2sccc12)c1ccccc1` (stereo not shown) [Example 3.22], the pest or weed control at 200 ppm (with Plasmopara viticola; in assay [1]) was no less than 80% throughout.
